This note sets out measurements from patent publication US20100222349A1, “QUINOLINE DERIVATIVES USED TO TREAT INFLAMMATORY AND ALLERGIC DISEASES” (Glaxo Group Limited, priority 2007, published 2010).

The target of one assay is T1, human H1 receptor (Homo sapiens, UniProt P35367).
T1 construct: expressed in transfected cells
The experiment in a line: Histamine H1 functional antagonist assay: determination of functional pKi values (FLIPR). The assay is classed as cell-based. The conditions noted are these: CHO cells expressing human H1 receptor, histamine at EC80, read-out: average pKi (pKb) at H1 (converted). The method, then:
The human H1 receptor is cloned using known procedures described in the literature [Biochem. Biophys. Res. Commun., 201(2):894 (1994)]. Chinese hamster ovary (CHO) cells stably expressing the human H1 receptor are generated according to known procedures described in the literature [Br. J. Pharmacol., 117(6):1071 (1996)]. The histamine H1 cell line is seeded into non-coated black-walled clear bottom 384-well tissue culture plates in alpha minimum essential medium (Gibco/Invitrogen, cat no. 22561-021), supplemented with 10′)/0 dialysed foetal calf serum (Gibco/Invitrogen cat no. 12480-021) and 2 mM L-glutamine (Gibco/Invitrogen cat no 25030-024) and is maintained overnight at 5% CO2, 37° C. Excess medium is removed from each well to leave 10 μl. 30 μl loading dye (250 μM Brilliant Black, 2 μM Fluo-4 diluted in Tyrodes buffer+probenecid (145 mM NaCl, 2.5 mM KCl, 10 mM HEPES, 10 mM D-glucose, 1.2 mM MgCl2, 1.5 mM CaCl2, 2.5 mM probenecid, pH adjusted to 7.40 with NaOH 1.0 M)) is added to each well and the plates are incubated for 60 min at 5% CO2, 37° C. 10 μl of test compound, diluted to the required concentration in Tyrodes buffer+probenecid (or 10 μl Tyrodes buffer+probenecid as a control) is added to each well and the plate is incubated for 30 min at 37° C., 5% CO2. The plates are then placed into a FLIPR™(Molecular Devices, UK) to monitor cell fluorescence (λex=488 nm, λEM=540 nm) in the manner described in Sullivan et al., (In: Lambert DG (ed.), Calcium Signaling Protocols, New Jersey: Humana Press, 1999, 125-136) before and after the addition of 10 μl histamine at a concentration that results in the final assay concentration of histamine being EC80. Functional antagonism is indicated by a suppression of histamine induced increase in fluorescence, as measured by the FLIPR™ system (Molecular Devices). By means of concentration effect curves, functional affinities are determined using standard pharmacological mathematical analysis.

The next assay addresses T2, histamine H3 receptor (Homo sapiens, UniProt Q9Y5N1).
T2 construct: expressed in transfected cells; host or cells: CHO K1 cells with pSwitch/pGeneH3 (GeneSwitch, mifepristone-induced), clone 3H3; membrane preparation
The experiment in a line: Histamine H3 functional antagonist assay (GTPγS, membranes). The assay is classed as biochemical. As to conditions: CHO K1 membranes, [35S]-GTPγS, histamine at EC80; read-out: average pKi (pKb) at H3 (converted). The protocol: The histamine H3 cDNA is isolated from its holding vector, pcDNA3.1 TOPO (InVitrogen), by restriction digestion of plasmid DNA with the enzymes BamH1 and Not-1 and is ligated into the inducible expression vector pGene (InVitrogen) digested with the same enzymes. The GeneSwitchTM system (a system where in transgene expression is switched off in the absence of an inducer and switched on in the presence of an inducer) is performed as described in U.S. Pat. Nos. 5,364,791; 5,874,534; and 5,935,934. Ligated DNA is transformed into competent DH5α E. coli host bacterial cells and is plated onto Luria Broth (LB) agar containing ZeocinTM (an antibiotic which allows the selection of cells expressing the sh ble gene which is present on pGene and pSwitch) at 50 μgml^-1. Colonies containing the re-ligated plasmid are identified by restriction analysis. DNA for transfection into mammalian cells is prepared from 250 ml cultures of the host bacterium containing the […]3 plasmid and is isolated using a DNA preparation kit (Qiagen Midi-Prep) as per manufacturers guidelines (Qiagen). CHO K1 cells previously transfected with the pSwitch regulatory plasmid (InVitrogen) are seeded at 2×10^6 cells per T75 flask in Complete Medium, containing Hams F12 (GIBCOBRL, Life Technologies) medium supplemented with 10% v/v dialysed foetal bovine serum, L-glutamine, and hygromycin (100 μgml^-1), 24 h prior to use. Plasmid DNA is transfected into the cells using Lipofectamine plus according to the manufacturer's guidelines (InVitrogen). 48 h post transfection, cells are placed into complete medium supplemented with 500 μgml^-1 ZeocinTM. 10-14 days post selection, 10 nM Mifepristone (InVitrogen) is added to the culture medium to induce the expression of the receptor. 18 h post induction, cells are detached from the flask using ethylenediamine tetra-acetic acid (EDTA; 1:5000; InVitrogen), following several washes with PBS, pH 7.4 and are resuspended in Sorting Medium containing Minimum Essential Medium (MEM), without phenol red, and are supplemented with Earles salts and 3% Foetal Clone II (Hyclone). Approximately 1×10^7 cells are examined for receptor expression by staining with a rabbit polyclonal antibody, 4a, raised against the N-terminal domain of the histamine H3 receptor, are incubated on ice for 60 min, followed by two washes in sorting medium. Receptor bound antibody is detected by incubation of the cells for 60 min on ice with a goat anti rabbit antibody, conjugated with Alexa 488 fluorescence marker (Molecular Probes). Following two further washes with Sorting Medium, cells are filtered through a 50 μm FilconTM (BD Biosciences) and then are analysed on a FACS Vantage SE Flow Cytometer fitted with an Automatic Cell Deposition Unit. Control cells are non-induced cells treated in an analogous manner. Positively stained cells are sorted as single cells into 96-well plates, containing Complete Medium containing 500 μgml^-1 ZeocinTM and are allowed to expand before reanalysis for receptor expression via antibody and ligand binding studies. One clone, 3H3, is selected for membrane preparation. All steps of the protocol are carried out at 4° C. and with pre-cooled reagents. The cell pellet is resuspended in 10 volumes of homogenisation buffer (50 mM N-2-hydroxyethylpiperazine-N'-2-ethanesulfonic acid (HEPES), 1 mM ethylenediamine tetra-acetic acid (EDTA), pH 7.4 with KOH, supplemented with 10^-6 M leupeptin (acetyl-leucyl-leucyl-arginal; Sigma L2884), 25 μgml^-1 bacitracin (Sigma B0125), 1 mM phenylmethylsulfonyl fluoride (PMSF) and 2×10^-6 M pepstain A (Sigma)). The cells are then homogenised by 2×15 sec bursts in a 1 L glass Waring blender, followed by centrifugation at 500 g for 20 min. The supernatant is then spun at 48,000 g for 30 min. The pellet is resuspended in homogenisation buffer (4× the volume of the original cell pellet) by vortexing for 5 sec, followed by homogenisation in a Dounce homogeniser (10-15 strokes). […]

A value given as a limit tells only on which side of the number the result lay.

T2 sequence (Q9Y5N1 whole entry, species assumed): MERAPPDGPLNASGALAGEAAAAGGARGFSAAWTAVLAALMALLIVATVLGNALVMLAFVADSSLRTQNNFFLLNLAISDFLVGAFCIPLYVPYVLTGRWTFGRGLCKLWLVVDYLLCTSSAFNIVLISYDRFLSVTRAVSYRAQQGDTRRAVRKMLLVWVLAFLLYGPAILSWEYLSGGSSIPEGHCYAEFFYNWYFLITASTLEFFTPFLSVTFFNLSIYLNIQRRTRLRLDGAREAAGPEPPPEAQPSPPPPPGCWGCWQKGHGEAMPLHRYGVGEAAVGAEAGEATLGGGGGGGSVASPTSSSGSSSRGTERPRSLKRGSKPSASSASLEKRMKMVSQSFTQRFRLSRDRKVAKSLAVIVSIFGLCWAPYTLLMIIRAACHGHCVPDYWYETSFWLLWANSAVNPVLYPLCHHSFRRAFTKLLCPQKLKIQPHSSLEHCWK
T1 sequence (P35367 whole entry): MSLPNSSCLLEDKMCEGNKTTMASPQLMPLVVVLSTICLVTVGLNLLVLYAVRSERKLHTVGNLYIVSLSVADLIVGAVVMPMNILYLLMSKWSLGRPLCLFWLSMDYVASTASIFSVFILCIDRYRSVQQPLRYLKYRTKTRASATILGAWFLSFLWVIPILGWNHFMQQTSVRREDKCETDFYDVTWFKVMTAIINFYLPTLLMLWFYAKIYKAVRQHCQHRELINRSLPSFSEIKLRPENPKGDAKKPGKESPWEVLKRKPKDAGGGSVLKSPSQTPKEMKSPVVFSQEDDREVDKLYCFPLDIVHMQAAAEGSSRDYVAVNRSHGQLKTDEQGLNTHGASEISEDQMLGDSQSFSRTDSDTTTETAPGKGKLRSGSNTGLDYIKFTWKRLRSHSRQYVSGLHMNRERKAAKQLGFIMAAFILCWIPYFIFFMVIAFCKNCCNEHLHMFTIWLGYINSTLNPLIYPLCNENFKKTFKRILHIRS

As to `CCCCCc1cc(OC2CCN(CCCC(=O)N(CC)CC)CC2)c2ncccc2c1` [Example 89, N,N-Diethyl-4-{4-[(6-pentyl-8-quinolinyl)oxy]-1-piperidinyl}butanamide], the Ki was less than 0.1 µM at human H1 receptor and more than 0.316 µM on histamine H3 receptor.
With `CCCCCc1cc(OC2CCN(CCCNC(=O)CC)CC2)c2ncccc2c1` [Example 90, N-(3-{4-[(6-Pentyl-8-quinolinyl)oxy]-1-piperidinyl}propyl)propanamide], the Ki on human H1 receptor was less than 0.01 µM; on histamine H3 receptor, more than 0.316 µM.
Taken in the same sequence, the figures for `CCCCc1cc(OC2CCN(CC(=O)NCCCOC)CC2)c2ncccc2c1` [Example 8, 2-{4-[(6-butyl-8-quinolinyl)oxy]-1-piperidinyl}-N-[3-(methyloxy)propyl] acetamide] were less than 0.1 µM and more than 3.16 µM.
Taken in the same sequence, the figures for `CCCCc1cc(OC2CCN(CCC(=O)NC(C)(C)C)CC2)c2ncccc2c1` [Example 17, 3-{4-[(6-butyl-8-quinolinyl)oxy]-1-piperidinyl}-N-(1,1-dimethylethyl) propanamide] were less than 0.01 µM and more than 3.16 µM.
With `CCCCc1cc(OC2CCN(CCC(=O)N(CC)CC)CC2)c2ncccc2c1` [Example 7, 3-{4-[(6-Butyl-8-quinolinyl)oxy]-1-piperidinyl}-N,N-diethylpropanamide], the results for the Ki on human H1 receptor and on histamine H3 receptor were less than 0.01 µM and more than 0.316 µM, respectively.
Take `CCCCc1cc(O[C@@H]2CCN(CCC(=O)NC(C)(C)C)C2)c2ncccc2c1` [Example 36, 3-{(3R)-3-[(6-butyl-8-quinolinyl)oxy]-1-pyrrolidinyl}-N-(1,1-dimethylethyl) propanamide]: the values for the Ki at human H1 receptor and at histamine H3 receptor were less than 0.01 µM and more than 0.316 µM, respectively.
With `CCCCc1cc(OC2CCN(C[C@H]3CC[C@H](C(=O)NCc4ccc(C)cc4)CC3)CC2)c2ncccc2c1` [Example 60, trans-4-({4-[(6-butyl-8-quinolinyl)oxy]-1-piperidinyl}methyl)-N-[(4-methylphenyl)methyl]cyclohexane carboxamide], the results for the Ki at human H1 receptor and at histamine H3 receptor were less than 0.1 µM and more than 0.316 µM, respectively.
The like results for `CCCCc1cc(OC2CCN(C[C@H]3CC[C@H](C(=O)NCC(C)(C)C)CC3)CC2)c2ncccc2c1` [Example 46, trans-4-({4-[(6-butyl-8-quinolinyl)oxy]-1-piperidinyl}methyl)-N-(2,2-dimethylpropyl) cyclohexane carboxamide] were, in that order, less than 0.1 µM and more than 0.316 µM.
Consider `CCCCc1cc(OC2CCN(CCCNC(=O)CCC)CC2)c2ncccc2c1` [Example 70, N-(3-{4-[(6-butyl-8-quinolinyl)oxy]-1-piperidinyl}propyl) butanamide], for which the Ki on human H1 receptor was less than 0.01 µM; at histamine H3 receptor, more than 0.316 µM.
On to `CCCCc1cc(OC2CCN(CC3CCN(C(=O)CC)CC3)CC2)c2ncccc2c1` [Example 2, 6-Butyl-8-({1-[(1-propanoyl-4-piperidinyl)methyl]-4-piperidinyl}oxy)quinoline], for which the Ki on human H1 receptor was less than 0.1 µM; at histamine H3 receptor it was more than 0.316 µM.
The like results for `CCCCCCc1cc(OC2CCN(C[C@H]3CC[C@H](C(=O)N4CCOCC4)CC3)CC2)c2ncccc2c1` [Example 57, 6-hexyl-8-[(1-{[trans-4-(4-morpholinylcarbonyl)cyclohexyl]methyl}-4-piperidinyl)oxy]quinoline] were, in that order, less than 0.1 µM and more than 0.316 µM.
The like results for `CCCCc1cc(OC2CCN(CCCC(=O)NCCCOC)CC2)c2ncccc2c1` [Example 21, 4-{4-[(6-butyl-8-quinolinyl)oxy]-1-piperidinyl}-N-[3-(methyloxy)propyl] butanamide] were, in that order, less than 0.01 µM and more than 3.16 µM.
The like results for `CCCCc1cc(OC2CCN(CCCC(=O)NC(C)C)CC2)c2ncccc2c1` [Example 25, 4-{4-[(6-butyl-8-quinolinyl)oxy]-1-piperidinyl}-N-(1-methylethyl)butanamide] were, in that order, less than 0.01 µM and more than 3.16 µM.
In the case of `CCCCc1cc(OC2CCN(CCCc3nc(CCC)no3)CC2)c2ncccc2c1` [Example 87, 6-Butyl-8-({1-[3-(3-propyl-1,2,4-oxadiazol-5-yl)propyl]-4-piperidinyl}oxy)quinoline], the Ki on human H1 receptor is less than 0.01 µM; at histamine H3 receptor it was more than 0.316 µM.
On to `CCCCc1cc(OC2CCN(CCCNC(=O)C(C)(C)C)CC2)c2ncccc2c1` [Example 69, N-(3-{4-[(6-butyl-8-quinolinyl)oxy]-1-piperidinyl}propyl)-2,2-dimethyl propanamide], for which the Ki on human H1 receptor was less than 0.01 µM; on histamine H3 receptor it was more than 0.316 µM.
On to `CCCCCCc1cc(OC2CCN(C[C@H]3CC[C@H](C(=O)NCCCOC)CC3)CC2)c2ncccc2c1` [Example 58, trans-4-({4-[(6-hexyl-8-quinolinyl)oxy]-1-piperidinyl}methyl)-N-[3-(methyloxy)propyl]cyclohexane carboxamide], for which the Ki at human H1 receptor is less than 0.1 µM; on histamine H3 receptor it was more than 0.316 µM.
For the compound `CCCCc1cc(O[C@@H]2CCN(CCCC(=O)NC(C)(C)C)C2)c2ncccc2c1` [Example 37, 4-{(3R)-3-[(6-butyl-8-quinolinyl)oxy]-1-pyrrolidinyl}-N-(1,1-dimethylethyl) butanamide], the Ki on human H1 receptor was less than 0.01 µM; at histamine H3 receptor it was more than 0.316 µM.
Regarding `CCCCc1cc(OC2CCN(CCCCCNC(=O)C3CCCCC3)CC2)c2ncccc2c1` [Example 78, N-(5-{4-[(6-butyl-8-quinolinyl)oxy]-1-piperidinyl}pentyl) cyclohexane carboxamide], the Ki on human H1 receptor is less than 0.01 µM; on histamine H3 receptor it was more than 0.316 µM.
Regarding `CCCCCCc1cc(OC2CCN(C[C@H]3CC[C@H](C(=O)NCCC(C)C)CC3)CC2)c2ncccc2c1` [Example 50, trans-4-({4-[(6-hexyl-8-quinolinyl)oxy]-1-piperidinyl}methyl)-N-(3-methylbutyl) cyclohexane carboxamide], the figures for the Ki at human H1 receptor and on histamine H3 receptor were less than 0.1 µM and more than 0.316 µM, respectively.
